Molecules are shown by their SMILES.

The subject of the assay is ApoA-I mRNA. The assay can be described thus: ApoA-I mRNA quantitation in HepG2 cells (real-time PCR). It is filed as cell-based. Details: key: Active: An active compound is one that causes a >15% increase in ApoA-I mRNA at a concentration less than or equal to 100 uM. Particulars: concentration less than or equal to 100 uM, fold induction relative to DMSO control. On the procedure:
At time of harvesting, the spent media was removed from the HepG2 cells and immediately placed on ice (for immediate use) or at −80° C. (for future use) in ApoA-I and albumin ELISAs. The cells remaining in the plate wells were rinsed in 200 μL PBS. PBS was carefully removed to avoid removing any loosely attached cells.
Once the PBS was removed, 85 μL cell lysis solution was added to the cells in each well and incubated for 5-10 min at room temperature, to allow for complete cell lysis and detachment. mRNA was then prepared using the “mRNA Catcher PLUS plate” from Invitrogen, according to the protocol supplied. After the last wash, as much wash buffer as possible was aspirated without allowing the wells to dry. Elution Buffer (E3, 80 μL) was then added to each well. mRNA was then eluted by incubating the mRNA Catcher PLUS plate with Elution Buffer for 5 min at 68° C. and then immediately placing the plate on ice.
The eluted mRNA was isolated and then used in a one-step real-time […]-PCR reaction, using components of the Ultra Sense Kit together with Applied Biosystems primer-probe mixes. Real-time PCR data was analyzed, using the Ct values, to determine the fold induction of each unknown sample, relative to the control (that is, relative to the control for each independent DMSO concentration).
The following compounds of Formula I were evaluated in this assay. An active compound is one that causes a >15% increase in ApoA-I mRNA at a concentration less than or equal to 100 uM.
(Real-time PCR tracks product formation cycle by cycle.)
Regarding `COc1cc(OC)c2c(=O)[nH]c(-c3ccc(OCC(N)=O)cc3)nc2c1` [2-(4-(5,7-dimethoxy-4-oxo-3,4-dihydroquinazolin-2-yl)phenoxy)acetamide], the “Effect on ApoA-I mRNA levels” value is “Active”. Consider `COc1cc(OC)c2cnc(-c3cc(C)c(OCCO)c(C)c3)nc2c1` [2-(4-(5,7-dimethoxyquinazolin-2-yl)-2,6-dimethylphenoxy)ethanol], for which the “Effect on ApoA-I mRNA levels” value is reported as “Active”. In the case of `COc1cc2nc(-c3cc(C)c(OCC(N)=O)c(C)c3)[nH]c(=O)c2cc1OC` [2-(4-(6,7-dimethoxy-4-oxo-3,4-dihydroquinazolin-2-yl)-2,6-dimethylphenoxy)acetamide], the “Effect on ApoA-I mRNA levels” value is on record as “Active”. With `CCN1CCN(Cc2ccc(-c3nc4cc(OC)cc(OC)c4c(=O)[nH]3)cc2)CC1` [2-(4-((4-ethylpiperazin-1-yl)methyl)phenyl)-5,7-dimethoxyquinazolin-4(3H)-one], the “Effect on ApoA-I mRNA levels” value is “Active”. Then `COc1cc(OC)c2c(=O)[nH]c(-c3cc(C)c(OCc4ccccc4)c(C)c3)nc2c1` [2-(4-(benzyloxy)-3,5-dimethylphenyl)-5,7-dimethoxyquinazolin-4(3H)-one], with “Active”; and `COc1cc(OC)c2c(=O)[nH]c(-c3ccc(N(CCO)CCO)cc3)nc2n1` [2-(4-(bis(2-hydroxyethyl)amino)phenyl)-5,7-dimethoxypyrido[2,3-d]pyrimidin-4(3H)-one], with “Active”. To `COc1cc(OC)c2c(=O)[nH]c(-c3ccc(N(CCO)CCO)cc3)nc2c1` [2-(4-(bis(2-hydroxyethyl)amino)phenyl)-5,7-dimethoxyquinazolin-4(3H)-one] belongs “Active”; to `COc1cc2nc(-c3ccc(N(CCO)CCO)cc3)[nH]c(=O)c2cc1OC` [2-(4-(bis(2-hydroxyethyl)amino)phenyl)-6,7-dimethoxyquinazolin-4(3H)-one], “Active”. Then `O=c1[nH]c(-c2ccc(N(CCO)CCO)cc2)nc2ccccc12` [2-(4-(bis(2-hydroxyethyl)amino)phenyl)quinazolin-4(3H)-one], with “Active”; and `COc1cc(OC)c2c(=O)[nH]c(-c3ccc(N(C)C)c4ccccc34)nc2c1` [2-(4-(dimethylamino)naphthalene-1-yl)-5,7-dimethoxyquinazolin-4(3H)-one], with “Active”. On to `CN(C)c1ccc(-c2nc3ccccc3c(=O)[nH]2)c2ccccc12` [2-(4-(dimethylamino)naphthalene-1-yl)quinazolin-4(3H)-one], for which the “Effect on ApoA-I mRNA levels” value is recorded as “Active”.

For the molecule `COc1cc(OC)c2c(=O)[nH]c(-c3cc(C)c(N)c(C)c3)nc2c1` [2-(4-amino-3,5-dimethylphenyl)-5,7-dimethoxyquinazolin-4(3H)-one], the “Effect on ApoA-I mRNA levels” value is “Active”. As for `COc1cc(OC)c2c(=O)nc(-c3cc(C)c(O)c(C)c3)n(C)c2c1` [2-(4-hydroxy-3,5-dimethylphenyl)-5,7-dimethoxy-1-methylquinazolin-4(1H)-one], the “Effect on ApoA-I mRNA levels” value is recorded as “Active”.

For `COc1cc2nc(-c3cc(C)c(O)c(C)c3)[nH]c(=O)c2c(OC)c1CN1CCOCC1` [2-(4-hydroxy-3,5-dimethylphenyl)-5,7-dimethoxy-6-(morpholinomethyl)quinazolin-4(3H)-one], the “Effect on ApoA-I mRNA levels” value was “Active”. To `COc1cc(OC)c2c(=O)[nH]c(-c3cc(C)c(O)c(C)c3)nc2n1` [2-(4-hydroxy-3,5-dimethylphenyl)-5,7-dimethoxypyrido[2,3-d]pyrimidin-4(3H)-one] belongs “Active”; to `COc1cc(OC)c2c(=O)[nH]c(-c3cc(C)c(O)c(C)c3)nc2c1` [2-(4-hydroxy-3,5-dimethylphenyl)-5,7-dimethoxyquinazolin-4(3H)-one], “Active”.

Regarding `Cc1cc(-c2nc3ccc(CN4CCOCC4)cc3c(=O)[nH]2)cc(C)c1O` [2-(4-hydroxy-3,5-dimethylphenyl)-6-(morpholinomethyl)quinazolin-4(3H)-one], the “Effect on ApoA-I mRNA levels” value is “Active”. Regarding `COc1cc(OC)c2c(=O)[nH]c(-c3ccc(O)c(CCO)c3)nc2c1` [2-(4-hydroxy-3-(2-hydroxyethyl)phenyl)-5,7-dimethoxyquinazolin-4(3H)-one], the “Effect on ApoA-I mRNA levels” value is “Active”. Then `COc1cc(OC)c2c(=O)[nH]c(-c3ccc(O)c(OC)c3)nc2c1` [2-(4-hydroxy-3-methoxyphenyl)-5,7-dimethoxyquinazolin-4(3H)-one], with “Active”; and `COc1cc(OC)c2c(=O)[nH]c(-c3ccc(O)c(C)c3)nc2c1` [2-(4-hydroxy-3-methylphenyl)-5,7-dimethoxyquinazolin-4(3H)-one], with “Active”. Turning to `COc1cc(OC)c2c(=O)[nH]c(-c3ccc(O)cc3)nc2c1` [2-(4-hydroxyphenyl)-5,7-dimethoxyquinazolin-4(3H)-one], the “Effect on ApoA-I mRNA levels” value is reported as “Active”. For the molecule `COc1cc(O)nc2cc(-c3cc(C)c(O)c(C)c3)[nH]c(=O)c12` [2-hydroxy-7-(4-hydroxy-3,5-dimethylphenyl)-4-methoxy-1,6-naphthyridin-5(6H)-one], the “Effect on ApoA-I mRNA levels” value was “Active”. Regarding `COc1cc(OC)c2c(=O)[nH]c(-c3cc(C)c(OCCNC(=O)N(C)C)c(C)c3)nc2c1` [3-(2-(4-(5,7-dimethoxy-4-oxo-3,4-dihydroquinazolin-2-yl)-2,6-dimethylphenoxy)ethyl)-1,1-dimethylurea], the “Effect on ApoA-I mRNA levels” value is listed as “Active”. To `COc1cc(OC)c2c(=O)[nH]c(-c3cc(C)c(OCCN4CCN(C)CC4)c(C)c3)cc2c1` [3-(3,5-dimethyl-4-(2-(4-methylpiperazin-1-yl)ethoxy)phenyl)-6,8-dimethoxyisoquinolin-1(2H)-one] belongs “Active”; to `COc1cc(OC)c2c(=O)[nH]c(-c3cc(C)c(OCCN4CCOCC4)c(C)c3)cc2c1` [3-(3,5-dimethyl-4-(2-morpholinoethoxy)phenyl)-6,8-dimethoxyisoquinolin-1(2H)-one], “Active”. To `COc1cccc2c(=O)[nH]c(-c3ccc(O)c(F)c3)cc12` [3-(3-fluoro-4-hydroxyphenyl)-5-methoxyisoquinolin-1(2H)-one] belongs “Inactive”; to `COc1cc(OC)c2c(=O)[nH]c(-c3cc(C)c(OCCN(C)C)c(C)c3)cc2c1` [3-(4-(2-(dimethylamino)ethoxy)-3,5-dimethylphenyl)-6,8-dimethoxyisoquinolin-1(2H)-one], “Active”; to `COc1cc(OC)c2c(=O)[nH]c(-c3cc(C)c(OCC(C)(C)O)c(C)c3)cc2c1` [3-(4-(2-hydroxy-2-methylpropoxy)-3,5-dimethylphenyl)-6,8-dimethoxyisoquinolin-1(2H)-one], “Active”. To `COc1cc(OC)c2c(=O)[nH]c(-c3cc(C)c(OCCO)c(C)c3)cc2c1` [3-(4-(2-hydroxyethoxy)-3,5-dimethylphenyl)-6,8-dimethoxyisoquinolin-1(2H)-one] belongs “Active”. Turning to `COc1cc(OC)c2c(=O)[nH]c(-c3ccc(CCC(=O)O)cc3)nc2c1` [3-(4-(5,7-dimethoxy-4-oxo-3,4-dihydroquinazolin-2-yl)phenyl)propanoic acid], the “Effect on ApoA-I mRNA levels” value is reported as “Active”.

`O=c1[nH]c(-c2ccc(O)cc2)cc2ccccc12` [3-(4-Hydroxyphenyl)-2H-isoquinolin-1-one]: the “Effect on ApoA-I mRNA levels” value is “Active”. Turning to `COc1cc2cc(-c3cc(C)c(O)c(C)c3)n(C)c(=O)c2c(OC)c1C` [3-(4-hydroxy-3,5-dimethylphenyl)-6,8-dimethoxy-2,7-dimethylisoquinolin-1(2H)-one], the “Effect on ApoA-I mRNA levels” value is listed as “Active”.

As for `COc1cc2cc(-c3cc(C)c(O)c(C)c3)n(C)c(=O)c2c(OC)c1CN1CCOCC1` [3-(4-hydroxy-3,5-dimethylphenyl)-6,8-dimethoxy-2-methyl-7-(morpholinomethyl) isoquinolin-1(2H)-one], the “Effect on ApoA-I mRNA levels” value is recorded as “Active”.

Regarding `COc1cc(OC)c2c(=O)n(C)c(-c3cc(C)c(O)c(C)c3)cc2c1` [3-(4-hydroxy-3,5-dimethylphenyl)-6,8-dimethoxy-2-methylisoquinolin-1(2H)-one], the “Effect on ApoA-I mRNA levels” value is “Active”. Then `COc1cc2cc(-c3cc(C)c(O)c(C)c3)[nH]c(=O)c2c(OC)c1CN1CCOCC1` [3-(4-hydroxy-3,5-dimethylphenyl)-6,8-dimethoxy-7-(morpholinomethyl)isoquinolin-1(2H)-one], with “Active”. Regarding `COc1cc(OC)c2c(=O)[nH]c(-c3cc(C)c(O)c(C)c3)cc2c1` [3-(4-hydroxy-3,5-dimethylphenyl)-6,8-dimethoxyisoquinolin-1(2H)-one], the “Effect on ApoA-I mRNA levels” value was “Active”.

Take `Cc1cc(-c2cc3ccc(CN4CCOCC4)cc3c(=O)[nH]2)cc(C)c1O` [3-(4-hydroxy-3,5-dimethylphenyl)-7-(morpholinomethyl)isoquinolin-1(2H)-one]: the “Effect on ApoA-I mRNA levels” value was “Active”.

In the case of `COc1cc(OC)c2c(=O)[nH]c(-c3ccc(O)cc3)cc2c1` [3-(4-hydroxyphenyl)-6,8-dimethoxyisoquinolin-1(2H)-one], the “Effect on ApoA-I mRNA levels” value is reported as “Active”.

Source of the values: US20160346291A1, “COMPOSITIONS AND THERAPEUTIC METHODS FOR ACCELERATED PLAQUE REGRESSION” (Resverlogix Corp, priority 2013, published 2016).
